From ChEMBL document CHEMBL5338824 (J Med Chem, 2023)
Active and inactive are the calls of the source. No cut-off for these calls is given here.

Key:
[1] = Toxicity in SCID mouse xenografted with human MV4-11 cells assessed as body weight loss at 20 mg/kg,ip qd administrated 5 days per week for 4 weeks; assay type: organism-based; conditions: in vivo, 672 h, time 28 day
MV4-11 [2] = test: Antiproliferative activity against human MV4-11 cells assessed as cell growth inhibition incubated for 4 days by WST-8 assay; assay type: functional, cell-based; conditions: MV4-11, 96 h
[3] = biological target: T1, Protein cereblon/Bromodomain-containing protein 3 (Homo sapiens, UniProt Q15059+Q96SW2); conditions: T47D, dose 0.1-1000 nM, time 4.0 hrs
Target sequence in this assay (Q15059 2-726 limits assumed): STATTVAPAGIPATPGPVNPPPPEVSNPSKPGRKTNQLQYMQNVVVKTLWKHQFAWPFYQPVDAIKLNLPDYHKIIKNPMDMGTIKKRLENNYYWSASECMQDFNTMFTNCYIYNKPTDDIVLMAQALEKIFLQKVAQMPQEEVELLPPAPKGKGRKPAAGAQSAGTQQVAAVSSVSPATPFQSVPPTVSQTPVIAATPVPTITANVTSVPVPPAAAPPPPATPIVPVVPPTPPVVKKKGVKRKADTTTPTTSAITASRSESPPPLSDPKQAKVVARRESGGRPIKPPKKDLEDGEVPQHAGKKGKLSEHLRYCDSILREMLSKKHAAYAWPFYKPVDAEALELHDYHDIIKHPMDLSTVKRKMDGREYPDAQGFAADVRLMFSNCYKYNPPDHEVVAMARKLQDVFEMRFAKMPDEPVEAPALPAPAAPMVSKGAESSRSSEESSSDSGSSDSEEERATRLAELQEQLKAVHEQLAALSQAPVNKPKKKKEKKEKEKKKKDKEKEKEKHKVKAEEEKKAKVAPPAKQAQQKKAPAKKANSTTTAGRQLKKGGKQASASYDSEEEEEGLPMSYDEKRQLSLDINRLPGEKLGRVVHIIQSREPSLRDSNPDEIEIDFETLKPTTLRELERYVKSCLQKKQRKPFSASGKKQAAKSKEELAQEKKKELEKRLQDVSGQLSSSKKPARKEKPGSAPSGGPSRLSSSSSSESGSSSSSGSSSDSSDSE
Target sequence in this assay (Q96SW2 whole entry partner): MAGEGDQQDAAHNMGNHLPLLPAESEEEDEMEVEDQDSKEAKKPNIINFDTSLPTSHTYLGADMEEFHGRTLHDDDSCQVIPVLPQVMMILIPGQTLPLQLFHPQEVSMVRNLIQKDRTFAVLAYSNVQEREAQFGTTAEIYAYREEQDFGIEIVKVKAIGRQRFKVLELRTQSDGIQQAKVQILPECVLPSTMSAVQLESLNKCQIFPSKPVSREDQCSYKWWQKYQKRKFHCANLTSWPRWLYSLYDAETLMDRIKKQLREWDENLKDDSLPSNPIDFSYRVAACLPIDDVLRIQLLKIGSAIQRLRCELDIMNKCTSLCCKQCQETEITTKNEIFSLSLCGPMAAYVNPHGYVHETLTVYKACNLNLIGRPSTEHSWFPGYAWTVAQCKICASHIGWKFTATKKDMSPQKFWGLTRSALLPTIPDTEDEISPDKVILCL

[4] = biological target: T1, Protein cereblon/Bromodomain-containing protein 3; conditions: MDA-MB-453, dose 0.1-1000 nM, time 4.0 hrs
Target sequence in this assay (Q15059 2-726 limits assumed): as the sequence (Q15059 2-726 limits assumed) above
Target sequence in this assay (Q96SW2 whole entry partner): as the sequence (Q96SW2 whole entry partner) above

[5] = biological target: T2, Protein cereblon/Bromodomain-containing protein 2 (Homo sapiens, UniProt P25440+Q96SW2); conditions: T47D, dose 0.1-1000 nM, time 4.0 hrs
Target sequence in this assay (P25440 whole entry, looked up): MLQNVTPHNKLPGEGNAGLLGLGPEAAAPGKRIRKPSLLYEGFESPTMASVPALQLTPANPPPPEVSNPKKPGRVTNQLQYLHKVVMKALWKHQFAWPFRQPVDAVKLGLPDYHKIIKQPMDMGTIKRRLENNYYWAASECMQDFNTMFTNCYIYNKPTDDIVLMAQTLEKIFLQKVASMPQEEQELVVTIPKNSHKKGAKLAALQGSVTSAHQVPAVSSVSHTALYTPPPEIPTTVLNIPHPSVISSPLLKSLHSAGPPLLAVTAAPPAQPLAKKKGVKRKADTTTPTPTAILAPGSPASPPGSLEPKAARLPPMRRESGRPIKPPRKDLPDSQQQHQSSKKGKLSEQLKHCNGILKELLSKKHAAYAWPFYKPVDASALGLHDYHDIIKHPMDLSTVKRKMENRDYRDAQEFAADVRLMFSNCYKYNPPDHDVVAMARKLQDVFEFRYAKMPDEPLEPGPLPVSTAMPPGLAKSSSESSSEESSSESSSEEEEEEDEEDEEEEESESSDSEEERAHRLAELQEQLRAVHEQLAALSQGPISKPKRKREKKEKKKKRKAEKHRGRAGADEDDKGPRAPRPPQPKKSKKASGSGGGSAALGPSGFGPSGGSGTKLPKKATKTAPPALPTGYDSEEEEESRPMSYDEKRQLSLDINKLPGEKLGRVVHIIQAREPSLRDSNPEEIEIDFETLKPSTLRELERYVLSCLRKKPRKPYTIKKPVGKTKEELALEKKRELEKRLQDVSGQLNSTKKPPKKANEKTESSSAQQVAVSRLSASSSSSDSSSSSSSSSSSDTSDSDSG
Target sequence in this assay (Q96SW2 whole entry, looked up): as the sequence (Q96SW2 whole entry partner) above

HL-60 = test: Antiproliferative activity against human HL-60 cells assessed as cell growth inhibition incubated for 4 days by WST-8 assay; assay type: functional, cell-based; conditions: HL-60, 96 h
[6] = Toxicity in SCID mouse xenografted with human MDA-MB-231 cells assessed as toxic signs at 20 mg/kg,ip qd administrated 5 days per week for 4 weeks; assay type: organism-based; conditions: in vivo, 672 h, time 28 day
[7] = biological target: T2, Protein cereblon/Bromodomain-containing protein 2; conditions: RS4-11, dose 0.1-1000 nM, time 4.0 hrs
Target sequence in this assay (P25440 whole entry, looked up): as the sequence (P25440 whole entry, looked up) above
Target sequence in this assay (Q96SW2 whole entry, looked up): as the sequence (Q96SW2 whole entry partner) above

MDA-MB-453 = test: Antiproliferative activity against human MDA-MB-453 cells assessed as cell growth inhibition incubated for 4 days by WST-8 assay; assay type: functional, cell-based; conditions: MDA-MB-453, 96 h
[8] = Toxicity in SCID mouse xenografted with human MV4-11 cells assessed as toxic signs at 20 mg/kg,ip qd administrated 5 days per week for 4 weeks; assay type: organism-based; conditions: in vivo, 672 h, time 28 day
[9] = biological target: T2, Protein cereblon/Bromodomain-containing protein 2; conditions: HL-60, dose 0.1-1000 nM, time 4.0 hrs
Target sequence in this assay (P25440 whole entry, looked up): as the sequence (P25440 whole entry, looked up) above
Target sequence in this assay (Q96SW2 whole entry, looked up): as the sequence (Q96SW2 whole entry partner) above

MV4-11 [10] = test: Antitumor activity against human MV4-11 cells xenografted in SCID mouse assessed as decrease in tumor growth at 20 mg/kg,ip qd administrated and measured after 48 hrs; assay type: functional, organism-based
[11] = Toxicity in SCID mouse xenografted with human MDA-MB-231 cells assessed as body weight loss at 20 mg/kg,ip qd administrated 5 days per week for 4 weeks; assay type: organism-based; conditions: in vivo, 672 h, time 28 day
T47D = test: Antiproliferative activity against human T47D cells assessed as cell growth inhibition incubated for 4 days by WST-8 assay; assay type: functional, cell-based; conditions: 96 h
[12] = biological target: T1, Protein cereblon/Bromodomain-containing protein 3; conditions: RS4-11, dose 0.1-1000 nM, time 4.0 hrs
Target sequence in this assay (Q15059 2-726 limits assumed): as the sequence (Q15059 2-726 limits assumed) above
Target sequence in this assay (Q96SW2 whole entry partner): as the sequence (Q96SW2 whole entry partner) above

[13] = biological target: T1, Protein cereblon/Bromodomain-containing protein 3; conditions: MV4-11, dose 0.1-1000 nM, time 4.0 hrs
Target sequence in this assay (Q15059 2-726 limits assumed): as the sequence (Q15059 2-726 limits assumed) above
Target sequence in this assay (Q96SW2 whole entry partner): as the sequence (Q96SW2 whole entry partner) above

[14] = biological target: T2, Protein cereblon/Bromodomain-containing protein 2; conditions: MDA-MB-231, dose 0.1-1000 nM, time 4.0 hrs
Target sequence in this assay (P25440 whole entry, looked up): as the sequence (P25440 whole entry, looked up) above
Target sequence in this assay (Q96SW2 whole entry, looked up): as the sequence (Q96SW2 whole entry partner) above

MOLM-13 = test: Antiproliferative activity against human MOLM-13 cells assessed as cell growth inhibition incubated for 4 days by WST-8 assay; assay type: functional, cell-based; conditions: MOLM-13, 96 h
[15] = biological target: T2, Protein cereblon/Bromodomain-containing protein 2; conditions: MDA-MB-453, dose 0.1-1000 nM, time 4.0 hrs
Target sequence in this assay (P25440 whole entry, looked up): as the sequence (P25440 whole entry, looked up) above
Target sequence in this assay (Q96SW2 whole entry, looked up): as the sequence (Q96SW2 whole entry partner) above

MV4-11 [16] = test: Antitumor activity against human MV4-11 cells xenografted in SCID mouse assessed as inhibition of tumor growth at 20 mg/kg,ip qd administrated and measured after 1 week; assay type: functional; conditions: MV4-11, 168 h, time 1 weeks
[17] = biological target: T2, Protein cereblon/Bromodomain-containing protein 2; conditions: MV4-11, dose 0.1-1000 nM, time 4.0 hrs
Target sequence in this assay (P25440 whole entry, looked up): as the sequence (P25440 whole entry, looked up) above
Target sequence in this assay (Q96SW2 whole entry, looked up): as the sequence (Q96SW2 whole entry partner) above

MDA-MB-231 [18] = test: Antiproliferative activity against human MDA-MB-231 cells assessed as cell growth inhibition incubated for 4 days by WST-8 assay; assay type: functional, cell-based; conditions: MDA-MB-231, 96 h
RS4-11 = test: Antiproliferative activity against human RS4-11 cells assessed as cell growth inhibition incubated for 4 days by WST-8 assay; assay type: functional, cell-based; conditions: RS4-11, 96 h
[19] = biological target: T2, Protein cereblon/Bromodomain-containing protein 2; conditions: MOLM-13, dose 0.1-1000 nM, time 4.0 hrs
MCF7 = test: Antiproliferative activity against human MCF7 cells assessed as cell growth inhibition incubated for 4 days by WST-8 assay; assay type: functional, cell-based; conditions: MCF7, 96 h
[20] = biological target: T1, Protein cereblon/Bromodomain-containing protein 3; conditions: MCF7, dose 0.1-1000 nM, time 4.0 hrs
Target sequence in this assay (Q15059 2-726 limits assumed): as the sequence (Q15059 2-726 limits assumed) above
Target sequence in this assay (Q96SW2 whole entry partner): as the sequence (Q96SW2 whole entry partner) above

[21] = biological target: T2, Protein cereblon/Bromodomain-containing protein 2; conditions: MCF7, dose 0.1-1000 nM, time 4.0 hrs
[22] = biological target: T1, Protein cereblon/Bromodomain-containing protein 3; conditions: MDA-MB-231, dose 0.1-1000 nM, time 4.0 hrs
Target sequence in this assay (Q15059 2-726 limits assumed): as the sequence (Q15059 2-726 limits assumed) above
Target sequence in this assay (Q96SW2 whole entry partner): as the sequence (Q96SW2 whole entry partner) above

[23] = biological target: T1, Protein cereblon/Bromodomain-containing protein 3; conditions: MOLM-13, dose 0.1-1000 nM, time 4.0 hrs
[24] = biological target: T1, Protein cereblon/Bromodomain-containing protein 3; conditions: HL-60, dose 0.1-1000 nM, time 4.0 hrs
[25] = biological target: T1, Protein cereblon/Bromodomain-containing protein 3; test: PROTAC activity at CRBN/BRD3 in human MV4-11 cells assessed as degradation of BRD3 protein level incubated for 4 hrs by Western blotting assay; assay type: cell-based
Target sequence in this assay (Q15059 whole entry): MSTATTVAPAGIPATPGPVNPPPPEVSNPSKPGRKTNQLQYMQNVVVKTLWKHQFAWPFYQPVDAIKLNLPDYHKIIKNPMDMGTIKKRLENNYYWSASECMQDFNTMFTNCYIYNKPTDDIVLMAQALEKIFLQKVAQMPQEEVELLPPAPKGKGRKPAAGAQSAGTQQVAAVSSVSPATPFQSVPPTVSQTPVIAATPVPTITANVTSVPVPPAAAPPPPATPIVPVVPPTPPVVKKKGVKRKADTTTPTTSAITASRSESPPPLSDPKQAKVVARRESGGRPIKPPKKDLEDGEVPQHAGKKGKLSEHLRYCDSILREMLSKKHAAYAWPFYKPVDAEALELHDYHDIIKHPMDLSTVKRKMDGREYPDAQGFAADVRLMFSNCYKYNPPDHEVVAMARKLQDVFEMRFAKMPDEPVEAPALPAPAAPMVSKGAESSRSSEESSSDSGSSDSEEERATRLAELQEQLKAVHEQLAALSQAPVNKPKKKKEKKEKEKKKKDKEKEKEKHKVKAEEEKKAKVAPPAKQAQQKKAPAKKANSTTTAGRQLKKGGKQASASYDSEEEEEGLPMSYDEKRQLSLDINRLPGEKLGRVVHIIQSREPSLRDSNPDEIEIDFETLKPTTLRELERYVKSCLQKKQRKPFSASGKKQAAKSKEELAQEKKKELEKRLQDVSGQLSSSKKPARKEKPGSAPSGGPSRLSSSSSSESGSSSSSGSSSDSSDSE
Target sequence in this assay (Q96SW2 whole entry): as the sequence (Q96SW2 whole entry partner) above

[26] = biological target: T3, Protein cereblon/Bromodomain-containing protein 4 (Homo sapiens, UniProt O60885+Q96SW2); conditions: MV4-11, dose 0.1-1000 nM, time 4.0 hrs
[27] = biological target: T3, Protein cereblon/Bromodomain-containing protein 4; test: PROTAC activity at CRBN/BRD4 in human MV4-11 cells assessed as degradation of BRD4 protein level incubated for 4 hrs by Western blotting assay; assay type: cell-based
[28] = biological target: T2, Protein cereblon/Bromodomain-containing protein 2; test: PROTAC activity at CRBN/BRD2 in human MV4-11 cells assessed as degradation of BRD2 protein level incubated for 4 hrs by Western blotting assay; assay type: cell-based
Target sequence in this assay (P25440 whole entry): as the sequence (P25440 whole entry, looked up) above
Target sequence in this assay (Q96SW2 whole entry): as the sequence (Q96SW2 whole entry partner) above

[29] = biological target: T1, Protein cereblon/Bromodomain-containing protein 3; test: In vivo protac activity at CRBN/BRD3 in human MV4-11 cells xenografted in SCID mouse assessed as degradation of BRD3 protein at 20 mg/kg,ip administrated and measured at 3 to 48 hrs by Western blotting analysis; assay type: functional, organism-based; conditions: time lower 3.0 hrs, time upper […]
[30] = biological target: T2, Protein cereblon/Bromodomain-containing protein 2; test: In vivo protac activity at CRBN/BRD2 in human MV4-11 cells xenografted in SCID mouse assessed as degradation of BRD2 protein at 20 mg/kg,ip administrated and measured at 3 to 48 hrs by Western blotting analysis; assay type: functional, organism-based; conditions: time lower 3.0 hrs, time upper […]
MV4-11 [31] = test: Antitumor activity against human MV4-11 cells xenografted in SCID mouse assessed as inhibition of tumor growth at 20 mg/kg,ip qd administrated 5 days per week for 4 weeks; assay type: functional; conditions: MV4-11, 672 h, time 28 day
MDA-MB-231 [32] = test: Antitumor activity against human MDA-MB-231 cells xenografted in SCID mouse assessed as inhibition of tumor growth at 20 mg/kg,ip qd administrated 5 days per week for 4 weeks; assay type: functional; conditions: MDA-MB-231, 672 h, time 28 day

T3 sequence (Q96SW2 whole entry, looked up, other chains not shown): as the sequence (Q96SW2 whole entry partner) above

| SMILES | IC50 (MV4-11 [2]) [µM] | Emax [3] [%] | Emax [4] [%] | Emax [5] [%] | IC50 (HL-60) [µM] | Emax [7] [%] | IC50 (MDA-MB-453) [µM] | Emax [9] [%] | IC50 (T47D) [µM] | Emax [12] [%] | Emax [13] [%] | Emax [14] [%] | IC50 (MOLM-13) [µM] | Emax [15] [%] | Emax [17] [%] | IC50 (MDA-MB-231 [18]) [µM] | IC50 (RS4-11) [µM] | Emax [19] [%] | IC50 (MCF7) [µM] | Emax [20] [%] | other results |
| --- | --- | --- | --- | --- | --- | --- | --- | --- | --- | --- | --- | --- | --- | --- | --- | --- | --- | --- | --- | --- | --- |
| Cc1nnc2n1-c1sc(C#Cc3cnn(C4(CCN5CCN(C)CC5)CN(c5cccc6c5C(=O)N(C5CCC(=O)NC5=O)C6=O)C4)c3)c(Cc3ccccc3)c1COC2 (stereo unspecified) | 0.011 | 25 | 14 | 6 | 0.0051 | 15 | 0.0809 | 18 | 0.0038 | 15 | 0 | 0 | 0.069 | 0 | 0 | 0.0176 | 0.0046 | 0 | 0.0384 | 0 | Activity [1]: Non-Toxic; Activity [6]: Non-Toxic; Activity [8]: Non-Toxic; Activity (MV4-11 [10]): Active; Activity [11]: Non-Toxic; inhibition in vivo at 20 mg/kg (MV4-11 [16]): 56%; Emax [21]: 11%; Emax [22]: 0%; Emax [23]: 9%; Emax [24]: 10% |
| Cc1nnc2n1-c1sc(C#Cc3cnn(C4CCN(c5cccc6c5C(=O)N(C5CCC(=O)NC5=O)C6=O)CC4)c3)c(Cc3ccccc3)c1COC2 (stereo unspecified) |  |  |  |  |  |  |  |  |  |  | 56 |  |  |  | 68 |  |  |  |  |  |  |
| Cc1nnc2n1-c1sc(C#Cc3cnn(C4CN(c5cccc6c5C(=O)N(C5CCC(=O)N(C)C5=O)C6=O)C4)c3)c(Cc3ccccc3)c1COC2 (stereo unspecified) |  |  |  |  |  |  |  |  |  |  | 12 |  |  |  | 5 |  |  |  |  |  | DC50 [25]: > 1 µM; Emax [26]: 2%; DC50 [27]: > 1 µM; DC50 [28]: > 1 µM |
| Cc1nnc2n1-c1sc(C#Cc3cnn(C)c3)c(Cc3ccccc3)c1COC2 | 0.149 |  |  |  | 0.113 |  | 0.689 |  | 0.623 |  | 0 |  | 0.212 |  | 0 | 0.151 | 0.186 |  | 0.804 |  | Activity [29]: inactive; Activity [30]: inactive; inhibition in vivo at 20 mg/kg (MV4-11 [31]): 63%; inhibition in vivo at 20 mg/kg (MDA-MB-231 [32]): 49% |
| Cc1nnc2n1-c1sc(C#Cc3cnn(C4CN(c5cccc6c5C(=O)N(C5CCC(=O)NC5=O)C6=O)C4)c3)c(Cc3ccccc3)c1COC2 (stereo unspecified) | 0.017 | 22 | 5 | 0 | 0.0049 | < 10 | 0.0599 | 10 | 0.0033 | 6 | 0 | 0 | 0.025 | 18 | 0 | 0.0159 | 0.0064 | 27 | 0.0378 | 34 | Emax [21]: 0%; Emax [22]: 19%; Emax [23]: 13%; Emax [24]: 18% |
